Test systems include SN12C; CCRF-CEM; CAKI-1; COLO 205; HCT-116; UO-31; HCT-15; EKVX; OVCAR-3; Malme-3M; OVCAR-5; IGROV-1; OVCAR-8; SF-268; A498; 786-0; HOP-62; U-251; NCI/ADR-RES.
Common to all, as to assay: NCI-60 cell line screen, 48 h

SMILES strings stand for the structures.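 48-hour exposure; five concentrations; linearly interpolated endpoints. GI50: concentration for 50% inhibition of growth.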 The source made the active and inactive calls. Rule as the data show it: active = GI50 up to about 1.1 µM and inactive = higher.

On to `COC(=O)CC1(O)C(=O)OCc2c1cc1n(c2=O)Cc2c-1nc1ccccc1c2OC` (stereo not given), for which the GI50 in the assay with SN12C is 0.097 µM (active); in the assay with CCRF-CEM it was < 0.0171 µM (active); in the assay with CAKI-1, 0.0673 µM (active); in the assay with COLO 205, 3.77 µM (inactive); in the assay on HCT-116, 0.388 µM (active); in the assay with UO-31, 1.04 µM (active). The GI50 in the assay on HCT-15 was 4.61 µM; in the assay with EKVX, 11.1 µM (inactive); in the assay on OVCAR-3, 3.86 µM (inactive); in the assay on Malme-3M, 3.3 µM (inactive); in the assay on OVCAR-5, 0.902 µM (active); in the assay on IGROV-1 it was 2.94 µM (inactive). The GI50 with OVCAR-8 is 0.726 µM (active); in the assay with SF-268, 0.133 µM (active); in the assay on A498, 0.724 µM (active); in the assay on 786-0, 0.136 µM (active); with HOP-62, 0.0461 µM (active); in the assay on U-251 it was 0.0964 µM (active).
For `O=C(N/C(=C\c1cc(Cl)ccc1Cl)c1nc2c(O)nc(S)nc2[nH]1)c1ccccc1`, the GI50 with SN12C was 30.1 µM (inactive); with CCRF-CEM, 13.4 µM (inactive); in the assay with CAKI-1, 38.5 µM (inactive); in the assay on COLO 205, 37.4 µM (inactive); in the assay on HCT-116 it was 7.91 µM (inactive); in the assay on UO-31 it was 23.6 µM (inactive). Moreover, the GI50 is 17.2 µM with HCT-15; 37.8 µM (inactive) in the assay with EKVX; 43.5 µM (inactive) with OVCAR-3; > 90.2 µM (inactive) in the assay with Malme-3M; > 100 µM (inactive) in the assay with OVCAR-5; > 42.4 µM (inactive) in the assay with IGROV-1. Moreover, the GI50 in the assay with OVCAR-8 was 25.7 µM (inactive); with SF-268, 33.4 µM (inactive); in the assay on A498 it was > 100 µM (inactive); in the assay with 786-0, 17.5 µM (inactive); with HOP-62 it was > 100 µM (inactive); with U-251, 32.1 µM (inactive).
With `Cc1cc(N(CCC#N)CCC#N)ccc1/C=C1N=C(/C=C\c2ccccc2)OC\1=O`, the GI50 in the assay on SN12C, with CCRF-CEM, in the assay with CAKI-1, in the assay on COLO 205, in the assay on HCT-116 and in the assay on UO-31 was > 100 µM (inactive) throughout. The GI50 is more than 100 µM in the assay with HCT-15; > 100 µM (inactive) in the assay on EKVX; > 100 µM (inactive) in the assay on OVCAR-3; > 100 µM (inactive) in the assay on Malme-3M; > 100 µM (inactive) in the assay with OVCAR-5; > 100 µM (inactive) in the assay on IGROV-1. Further, the GI50 in the assay on OVCAR-8, in the assay with SF-268, in the assay on A498, in the assay with 786-0, with HOP-62 and with U-251 was > 100 µM (inactive) throughout.
In the case of `O=C(Nc1ccc(Sc2ccc(/N=N/c3c(O)c(S(=O)(=O)O)cc4cc(S(=O)(=O)O)ccc34)cc2)cc1)c1ccc(/N=N/c2c(O)c(S(=O)(=O)O)cc3cc(S(=O)(=O)O)ccc23)cc1`, the GI50 in the assay on SN12C is 26.9 µM (inactive); in the assay on CCRF-CEM it was 21.2 µM (inactive); in the assay with CAKI-1 it was 37.4 µM (inactive); with COLO 205, 15.9 µM (inactive); in the assay with HCT-116, 29.8 µM (inactive); with UO-31 it was 35.6 µM (inactive). For the same compound, the GI50 is 14.9 µM in the assay on HCT-15; 17.7 µM (inactive) in the assay on EKVX; 15.8 µM (inactive) with OVCAR-3; 15.5 µM (inactive) in the assay with Malme-3M; 47.2 µM (inactive) in the assay on OVCAR-5; 35.6 µM (inactive) with IGROV-1. In addition, the GI50 is 21 µM (inactive) in the assay with OVCAR-8; 38.7 µM (inactive) with SF-268; 45.2 µM (inactive) in the assay with A498; 43.6 µM (inactive) in the assay on 786-0; 88.1 µM (inactive) in the assay with HOP-62; 35.2 µM (inactive) in the assay on U-251.
Regarding `O=C1CCC2(c3ccccc3)Nc3ccc(Cl)cc3N12` (stereo not given), the GI50 in the assay on SN12C is > 100 µM (inactive); in the assay with CCRF-CEM, > 100 µM (inactive); in the assay on CAKI-1 it was > 100 µM (inactive); in the assay on COLO 205, > 100 µM (inactive); with UO-31 it was > 100 µM (inactive); with HCT-15, more than 100 µM. Moreover, the GI50 with EKVX, with OVCAR-3, in the assay on Malme-3M, in the assay on OVCAR-5, in the assay with IGROV-1 and in the assay on OVCAR-8 was > 100 µM (inactive) in each case. Also, the GI50 in the assay with SF-268, in the assay with A498, in the assay with 786-0, with HOP-62 and in the assay with U-251 was > 100 µM (inactive) in each case.
With `Oc1ccc(C2Oc3cc(O)cc4c3C2c2cc(O)cc3c2C(c2cc(O)cc5c2C4C(c2ccc(O)cc2)O5)C(c2ccc(O)cc2)O3)cc1` (stereo not given), the GI50 in the assay on SN12C was 8.05 µM (inactive); in the assay with CCRF-CEM, 5.78 µM (inactive); in the assay with CAKI-1, > 25 µM (inactive); with COLO 205, > 25 µM (inactive); with HCT-116, 7.48 µM (inactive); with UO-31 it was 8.24 µM (inactive). In addition, the GI50 with HCT-15 is more than 25 µM; in the assay with EKVX, > 25 µM (inactive); in the assay with OVCAR-3 it was 7 µM (inactive); in the assay on Malme-3M it was 5.7 µM (inactive); in the assay with OVCAR-5 it was > 25 µM (inactive); in the assay with OVCAR-8, 6.61 µM (inactive). Further, the GI50 is 5.12 µM (inactive) with SF-268; > 25 µM (inactive) in the assay with A498; 14.2 µM (inactive) with 786-0; 16.5 µM (inactive) in the assay on HOP-62; 6.32 µM (inactive) in the assay on U-251.
In the case of `c1ccc2c(c1)nnn1c3cnccc3nc21`, the GI50 in the assay with SN12C is 32.4 µM (inactive); in the assay with CCRF-CEM it was 9.53 µM (inactive); with CAKI-1 it was 28.6 µM (inactive); in the assay with COLO 205 it was 20.7 µM (inactive); in the assay on HCT-116 it was 27.6 µM (inactive); in the assay with UO-31 it was 38.9 µM (inactive). The GI50 in the assay with HCT-15 is 22.6 µM; with EKVX, 51.6 µM (inactive); in the assay with OVCAR-3, 18.9 µM (inactive); in the assay with Malme-3M it was > 100 µM (inactive); with OVCAR-5, 63.8 µM (inactive); in the assay with IGROV-1 it was 36.4 µM (inactive). Moreover, the GI50 was 30 µM (inactive) with OVCAR-8; 37.8 µM (inactive) in the assay with SF-268; 94 µM (inactive) in the assay on A498; 32.4 µM (inactive) in the assay on 786-0; 40.2 µM (inactive) with HOP-62; 28.3 µM (inactive) with U-251.
Regarding `Cc1cn2cc(-c3ccncc3)nc2s1`, the GI50 was > 100 µM (inactive) in the assay on SN12C; > 52.7 µM (inactive) in the assay on CCRF-CEM; > 100 µM (inactive) in the assay with CAKI-1; > 71.8 µM (inactive) with COLO 205; > 83 µM (inactive) with HCT-116; > 100 µM (inactive) in the assay with UO-31. Further, the GI50 is 98.6 µM in the assay on HCT-15; > 100 µM (inactive) in the assay with EKVX; > 100 µM (inactive) in the assay on OVCAR-3; > 100 µM (inactive) in the assay with Malme-3M; > 100 µM (inactive) with OVCAR-5; > 100 µM (inactive) in the assay with IGROV-1. Also, the GI50 with OVCAR-8, in the assay with SF-268, in the assay with A498, with 786-0, in the assay on HOP-62 and in the assay with U-251 was > 100 µM (inactive) each time.
`O=C(/C=C/c1cccs1)c1ccc(Cl)cc1`: the GI50 was 51.5 µM (inactive) with SN12C; 29.9 µM (inactive) in the assay on CCRF-CEM; > 100 µM (inactive) in the assay with COLO 205; 41.5 µM (inactive) in the assay on HCT-116; 82.2 µM (inactive) in the assay with UO-31; 41 µM in the assay with HCT-15. The GI50 in the assay with NCI/ADR-RES is > 100 µM (inactive); in the assay with EKVX, > 100 µM (inactive); in the assay with Malme-3M, > 100 µM (inactive); in the assay on OVCAR-5, > 100 µM (inactive); in the assay with IGROV-1, > 100 µM (inactive); in the assay with OVCAR-8 it was 90.4 µM (inactive). Moreover, the GI50 was 50.8 µM (inactive) in the assay with SF-268; 99.3 µM (inactive) in the assay with A498; 55.7 µM (inactive) with 786-0; > 100 µM (inactive) in the assay on HOP-62; > 100 µM (inactive) in the assay on U-251.
As for `CC(C)(CN1CCOCC1)C(=O)/C=C/c1ccc(/C=C/C(=O)C(C)(C)CN2CCOCC2)cc1`, the GI50 with SN12C was 1.35 µM (inactive); with CCRF-CEM, 1.36 µM (inactive); with CAKI-1 it was 1.4 µM (inactive); in the assay with COLO 205, 1.64 µM (inactive); in the assay with HCT-116, 0.408 µM (active); in the assay on UO-31, 1.75 µM (inactive). In addition, the GI50 in the assay on HCT-15 was 0.297 µM; in the assay with EKVX, 1.65 µM (inactive); in the assay with OVCAR-3, 1.07 µM (active); in the assay with Malme-3M it was 2.12 µM (inactive); in the assay on OVCAR-5, 1.8 µM (inactive); with IGROV-1, 2.09 µM (inactive). Further, the GI50 in the assay with OVCAR-8 was 1.45 µM (inactive); with SF-268, 1.59 µM (inactive); in the assay on A498, 1.97 µM (inactive); in the assay with 786-0, 2 µM (inactive); in the assay on HOP-62, 2.46 µM (inactive); in the assay with U-251, 1.24 µM (inactive).
For `CCc1cccc(C(C)C)c1N1C(=O)C(=O)C(c2nc3ccccc3s2)C(=O)C1=O`, the GI50 in the assay on SN12C was > 50 µM (inactive); in the assay on CCRF-CEM, 11.3 µM (inactive); with CAKI-1 it was > 50 µM (inactive); in the assay with COLO 205 it was 16.8 µM (inactive); in the assay with HCT-116, 20 µM (inactive); in the assay on UO-31, > 50 µM (inactive). Moreover, the GI50 in the assay on HCT-15 was 29.4 µM; in the assay on EKVX it was > 50 µM (inactive); in the assay on OVCAR-3, > 25.5 µM (inactive); in the assay with Malme-3M, > 26.2 µM (inactive); in the assay on OVCAR-5, > 50 µM (inactive); in the assay with IGROV-1 it was > 50 µM (inactive). Also, the GI50 with OVCAR-8 was > 35.2 µM (inactive); in the assay with SF-268, > 50 µM (inactive); in the assay with A498 it was > 50 µM (inactive); in the assay with 786-0 it was > 50 µM (inactive); in the assay with HOP-62, > 50 µM (inactive); in the assay on U-251, > 48.3 µM (inactive).

The values are drawn from ChEMBL document CHEMBL1201862, “PubChem BioAssay data set” (2004).
